Measured values as given in ChEMBL document CHEMBL1201862, “PubChem BioAssay data set” (2004).
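Method: 48-hour compound exposure of cells in 96-well plates, five concentrations, linear interpolation of endpoints. GI50 is the concentration that inhibits growth by half.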 The source made the active and inactive calls. Rule as the data show it: active = GI50 up to about 1.1 µM and inactive = higher.

Tests used:
Test in all cases: NCI anticancer screen, dose series, 48 h
A498 = test system: A498
MDA-MB-231 = test system: MDA-MB-231
COLO 205 = test system: COLO 205
HOP-92 = test system: HOP-92
SF-268 = test system: SF-268
MOLT-4 = test system: MOLT-4
SF-539 = test system: SF-539
PC-3 = test system: PC-3
HOP-62 = test system: HOP-62
SNB-19 = test system: SNB-19
U-251 = test system: U-251
LOX IMVI = test system: LOX IMVI
IGROV-1 = test system: IGROV-1
NCI-H226 = test system: NCI-H226
SK-MEL-5 = test system: SK-MEL-5
SN12C = test system: SN12C
HCT-116 = test system: HCT-116
A549 = test system: A549
MCF7 = test system: MCF7
RPMI-8226 = test system: RPMI-8226

Measured: GI50

C=CCC1(O)C(=O)OC2C(O)COC21O (configuration not stated)
inactive: A498 > 100 µM | MDA-MB-231 > 100 µM | COLO 205 > 100 µM | HOP-92 > 100 µM | SF-268 > 100 µM | MOLT-4 > 100 µM | SF-539 > 100 µM | PC-3 > 100 µM | HOP-62 > 100 µM | SNB-19 > 100 µM | U-251 > 100 µM | LOX IMVI > 100 µM | IGROV-1 > 100 µM | NCI-H226 > 100 µM | SK-MEL-5 > 100 µM | SN12C > 100 µM | HCT-116 > 100 µM | A549 > 100 µM | MCF7 > 100 µM

OCC1OC(n2cnc3c2N=CNC[C@H]3O)C(Cl)C1O (some centres not stated)
inactive: A498 > 100 µM | MDA-MB-231 > 100 µM | COLO 205 > 100 µM | HOP-92 > 100 µM | SF-268 > 100 µM | MOLT-4 94.2 µM | SF-539 > 100 µM | PC-3 > 100 µM | HOP-62 > 100 µM | SNB-19 > 100 µM | U-251 > 100 µM | LOX IMVI > 100 µM | IGROV-1 > 100 µM | SK-MEL-5 > 100 µM | SN12C > 100 µM | HCT-116 > 100 µM | A549 > 100 µM | RPMI-8226 > 100 µM | MCF7 > 100 µM

Cc1ccc(SCC(CF)OC(C)n2cnc3c(Cl)nc(N)nc32)cc1 (configuration not stated)
inactive: MDA-MB-231 46.6 µM | COLO 205 > 100 µM | HOP-92 59.8 µM | SF-268 96.8 µM | MOLT-4 25.8 µM | SF-539 > 100 µM | PC-3 90.6 µM | HOP-62 > 100 µM | SNB-19 > 100 µM | U-251 > 100 µM | LOX IMVI 70.8 µM | IGROV-1 > 100 µM | NCI-H226 > 100 µM | SK-MEL-5 17.3 µM | SN12C 43.3 µM | HCT-116 55.1 µM | A549 44.7 µM | RPMI-8226 > 100 µM | MCF7 27.2 µM

CC1(C)CCCCCCCCCC(C)(CCCO)C1=O (configuration not stated)
inactive: A498 18.5 µM | MDA-MB-231 15.2 µM | COLO 205 16.3 µM | HOP-92 14.5 µM | SF-268 18.2 µM | MOLT-4 14.1 µM | PC-3 14 µM | HOP-62 16.6 µM | SNB-19 17.8 µM | U-251 16.8 µM | LOX IMVI 17.6 µM | IGROV-1 17.4 µM | NCI-H226 16.1 µM | SK-MEL-5 17.5 µM | SN12C 18.2 µM | HCT-116 17.3 µM | A549 15.5 µM | RPMI-8226 26.5 µM | MCF7 17.1 µM

Cc1ccc(-c2cc(O)c3nc4ccccc4n3c2)cc1
inactive: A498 > 100 µM | MDA-MB-231 > 100 µM | COLO 205 > 100 µM | HOP-92 > 100 µM | SF-268 > 100 µM | MOLT-4 > 100 µM | SF-539 > 100 µM | PC-3 > 100 µM | HOP-62 > 100 µM | SNB-19 > 100 µM | U-251 > 100 µM | LOX IMVI 75 µM | IGROV-1 > 100 µM | NCI-H226 > 100 µM | SN12C > 100 µM | HCT-116 > 100 µM | A549 > 100 µM | RPMI-8226 > 100 µM | MCF7 > 100 µM

O=C1C(C(c2ccc([N+](=O)[O-])cc2)N2CCOCC2)=C(O)C(c2ccccc2)N1c1ccccc1 (configuration not stated)
inactive: A498 > 10 µM | MDA-MB-231 > 10 µM | COLO 205 > 10 µM | SF-268 > 10 µM | MOLT-4 > 10 µM | SF-539 > 10 µM | PC-3 > 10 µM | HOP-62 > 10 µM | SNB-19 > 10 µM | U-251 > 10 µM | LOX IMVI > 10 µM | IGROV-1 > 10 µM | NCI-H226 > 10 µM | SK-MEL-5 > 10 µM | SN12C > 10 µM | HCT-116 > 10 µM | A549 > 10 µM | RPMI-8226 > 10 µM | MCF7 > 10 µM

C=C1C(=O)[C@]23C[C@H]1C[C@@H](O)[C@H]2[C@]1(COC3=O)[C@@H](OC(C)=O)CC[C@@](C)(COC(C)=O)[C@H]1C=O [LOXOTHYRIN A]
inactive: A498 > 50 µM | MDA-MB-231 > 50 µM | COLO 205 8.53 µM | HOP-92 10.2 µM | SF-268 13.8 µM | MOLT-4 9.04 µM | PC-3 > 50 µM | HOP-62 > 50 µM | SNB-19 > 50 µM | U-251 > 50 µM | LOX IMVI > 50 µM | IGROV-1 > 50 µM | NCI-H226 9.57 µM | SK-MEL-5 > 50 µM | SN12C > 50 µM | HCT-116 37 µM | A549 > 50 µM | MCF7 17.8 µM
